Results on five molecules are retold here after ChEMBL document CHEMBL1158988, “Cytotoxic norditerpene lactones from Ileostylus micranthus” (J Nat Prod, 1991).

SMILES strings stand for the structures. ≈ marks a conversion by molar mass, not a printed value.

This experiment has as its system P388. Put plainly: Cytotoxicity against mouse P388 cells. It is filed as functional, cell-based.

The IC50 is the concentration that gives 50% inhibition. `CC(C)[C@H]1OC(=O)C=C2[C@@]13O[C@@H]3[C@H]1OC(=O)[C@@]3(C)C[C@H](O)C[C@@]2(C)[C@@H]13` had an IC50 of 0.06 µg/mL (≈ 0.172 µM).

The molecule `CC(C)[C@H]1OC(=O)C=C2C1=C[C@H]1OC(=O)[C@@]3(C)C[C@H](O)C[C@@]2(C)[C@@H]13` yielded an IC50 of 0.06 µg/mL (≈ 0.181 µM).

Consider `CC(C)c1oc(=O)cc2c1[C@@H](O)[C@H]1OC(=O)[C@@]3(C)C[C@H]4O[C@H]4[C@@]2(C)[C@@H]13`, for which the IC50 came to 0.65 µg/mL (≈ 1.88 µM).

As for `CC(C)c1oc(=O)cc2c1[C@@H](O)[C@H]1OC(=O)[C@@]3(C)[C@@H](O)[C@H]4O[C@H]4[C@@]2(C)[C@@H]13` [NAGILACTONE C], the IC50 came out at 0.33 µg/mL (≈ 0.911 µM).

With `C=C[C@H]1OC(=O)C=C2C1=C[C@H]1OC(=O)[C@]3(C)[C@H]1[C@]2(C)[C@H]1O[C@H]1[C@@H]3O` [PODOLACTONE E], the IC50 was less than 0.01 µg/mL.
